Source: patent US20080280837A1, “Biologically Active Compounds with Anti-Angiogenic Properties” (priority 2004, published 2008)

Molecular target: T1, Human SST5 somatostatin receptor (SSTR5) (Homo sapiens, UniProt P35346)
T1 construct: expressed in transfected cells; host or cells: HEK-293 EBNA
Test: Filter plate assay for SST5 receptor, displacement of [125I]SST-14
Type: binding
Protocol: Receptor membrane preparations containing the desired cloned receptor (for example cloned human somatostatin receptor subtype 5, SSTR5) and radio-labeled ligand (for example 3-[^125I]iodotyrosyl^11 Somatostatin-14)) were diluted at the concentration required for testing and according to the specific parameters associated with the selected receptor-ligand combination, including receptor Bmax, ligand Kd and any other parameters necessary to optimize the experimental conditions. When tested for competition activity to the reference ligand, “compound 1” was mixed with membrane suspension and the radiolabeled reference ligand (with or without an excess of cold ligand to the receptor for determination of non-specific binding) and incubated at the temperature required by internal standard operating procedures. Following incubation, the binding reaction was stopped by the addition of ice-cold washing buffer and filtered on appropriate filters, which are then counted. Data analysis and curve-fitting was performed with XLfit (IDBS).
10 mM solutions of test compounds in 100% DMSO were prepared. ˜160 μl was used for each dilution (20 μl/well in triplicate).
A 1.25 mM assay stock was prepared by making a 1:8 dilution of the 10 mM solution. (To 30 μL of the 10 mM solution was added 210 μL milli-Q H2O. A 1:5 dilution series in milli-Q H2O was then prepared.
Assays were performed in triplicate at each concentration within the 1:5 dilution series: 250 μM, 50 μM, 10 μM, […], 0.4 μM, 0.08 μM, 0.016 μM, 0.0032 μM, etc. (for SST4 assay) and 125 μM, 10 μM, 2 μM, 1 μM, 0.5 μM, etc (for SST5 assay).
Human SST5 somatostatin receptor was transfected into HEK-293 EBNA cells. Membranes were suspended in assay buffer (50 mM Tris-HCl, 1 mM EGTA, 5 mM MgCl2, 10% sucrose, pH 7.5).
After thawing the frozen receptor preparation rapidly, receptors were diluted with binding buffer, homogenized, and kept on ice. • 1. Use Multiscreen glass fiber filter plates (Millipore, Cat No MAFCNOB10) precoated with o.5% PEI for ˜2 hr at 4° C. Before use add 200 μl/well assay buffer and filter using Multiscreen Separation System. • 2. Incubate 5.5 μg of membranes (40 μl of a 1:40 dilution), buffer and [^125I]SST-14 (4 nM, ˜80 000 cpm, 2000 Ci/mmol) in a total volume of 200 μl for 60 min at 25° C. […] Prepare serial dilutions (1:5) of compounds, as described above and instead of adding SST-14 in well, add 20 μl of compounds (Table 1). • 3. Filter using Multiscreen Separation System with 5×0.2 ml ice-cold Assay buffer. • 4. Remove the plastic underdrain and dry plate in oven for 1 hr at 40° C. • 5. Seal tape to the bottom of the plate. • 6. Add 50 μl/well scintillant (Supermix, Wallac, Cat No 1200-439). • 7. Seal and count in the BJET, program 2.
In primary screening experiments compounds were tested in duplicate for a particular concentration.

T1 sequence (P35346 whole entry): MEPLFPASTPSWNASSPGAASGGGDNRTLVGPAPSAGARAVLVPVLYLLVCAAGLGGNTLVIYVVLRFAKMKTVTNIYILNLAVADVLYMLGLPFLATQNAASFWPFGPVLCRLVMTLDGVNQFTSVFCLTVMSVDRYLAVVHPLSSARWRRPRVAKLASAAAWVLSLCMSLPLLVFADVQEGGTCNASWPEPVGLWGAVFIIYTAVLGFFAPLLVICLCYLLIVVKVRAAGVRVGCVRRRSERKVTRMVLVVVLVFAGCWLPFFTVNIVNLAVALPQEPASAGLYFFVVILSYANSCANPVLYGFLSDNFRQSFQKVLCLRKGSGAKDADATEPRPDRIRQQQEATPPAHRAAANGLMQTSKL

Structure (SMILES) | SSTR5 Inhib 0.5 uM % (inhibition of binding of SST-14 to SSTR5) [%] | SSTR5 Inhib 10 uM % (inhibition of binding of SST-14 to SSTR5) [%]
COC[C@H]1OC(OCc2ccc(Cl)cc2)[C@H](NC(=O)CCCN)[C@@H](OCc2ccc3ccccc3c2)[C@@H]1O (some centres unmarked) [Compound 48] | 66 | 92
COC[C@H]1OC(OCc2ccc(Cl)cc2)[C@H](NC(=O)CCNC(=N)N)[C@H](OCc2ccc3ccccc3c2)[C@@H]1O (some centres unmarked) [Compound 50] | 74 | 92
COC1C(O)C(COCc2ccc3ccccc3c2)OC(OCc2ccc(Cl)cc2)C1NC(=O)C1CCCN1 (centres unmarked) [Compound 51] | 76 | 92
COC[C@H]1OC(OCc2ccc3ccccc3c2)[C@H](NC(=O)CCNC(=N)N)[C@@H](OCc2ccc(-c3ccccc3)cc2)[C@@H]1O (some centres unmarked) [Compound 52] | 69 | 92
COC[C@H]1OC(OCc2ccc(-c3ccccc3)cc2)[C@H](NC(=O)CCCNC(=N)N)[C@@H](OCc2ccc(-c3ccccc3)cc2)[C@@H]1O (some centres unmarked) [Compound 58] | 65 | 91
COC[C@H]1OC(OCc2ccccc2)[C@H](NC(=O)CCCN)[C@H](OCc2ccc(Cl)cc2)[C@@H]1O (some centres unmarked) [Compound 59] | 66 | 90
COC[C@H]1OC(OCc2ccc3ccccc3c2)[C@H](NC(=O)CCCN)[C@@H](OCc2ccc(Cl)cc2)[C@@H]1O (some centres unmarked) [Compound 61] | 61 | 90
COC[C@H]1OC(OCCc2ccccc2)[C@H](NC(=O)CCCN)[C@@H](OCc2ccc(-c3ccccc3)cc2)[C@@H]1O (some centres unmarked) [Compound 65] | 61 | 90
CSC1O[C@H](COCc2ccc(-c3ccccc3)cc2)[C@@H](O)[C@@H](OCc2ccc3ccccc3c2)[C@H]1NC(=O)CCN (some centres unmarked) [Compound 66] | 61 | 89
CO[C@H]1[C@H](O)[C@@H](COCc2ccc(-c3ccccc3)cc2)OC(OCc2ccc(Cl)cc2)[C@@H]1NC(=O)CCCNC(=N)N (some centres unmarked) [Compound 67] | 48 | 89
CO[C@@H]1[C@H](O)[C@@H](COCc2ccc3ccccc3c2)OC(OCc2ccc(Cl)cc2)[C@@H]1NC(=O)C1CCCN(C(=N)N)C1 (some centres unmarked) [Compound 69] | 67 | 89
COC[C@H]1OC(OCc2ccc(Cl)cc2)[C@H](NC(=O)CCNC(=N)N)[C@H](OCc2ccc(Cl)cc2)[C@@H]1O (some centres unmarked) [Compound 71] | 49 | 89
COC[C@H]1OC(OCCc2ccccc2)[C@H](NC(=O)CCCN)[C@@H](OCc2ccc3ccccc3c2)[C@@H]1O (some centres unmarked) [Compound 73] | 56 | 89
COC[C@H]1OC(OCc2ccc(-c3ccccc3)cc2)[C@H](NC(=O)CCCN)[C@@H](OCc2ccc(Cl)cc2)[C@@H]1O (some centres unmarked) [Compound 74] | 64 | 89
COC[C@H]1OC(OCc2ccc3ccccc3c2)[C@H](NC(=O)CCCNC(=N)N)[C@@H](OCc2ccc3ccccc3c2)[C@@H]1O (some centres unmarked) [Compound 75] | 61 | 89
COC1C(O)C(COCc2ccc(Cl)cc2)OC(OCc2ccc(-c3ccccc3)cc2)C1NC(=O)CCNC(=N)N (centres unmarked) [Compound 78] | 43 | 88
COC1C(O)C(COCc2ccc3ccccc3c2)OC(OCc2ccc(Cl)cc2)C1NC(=O)C1CCN(C(=N)N)CC1 (centres unmarked) [Compound 79] | 55 | 88
COC1C(O)C(COCc2ccc3ccccc3c2)OC(OCc2ccc3ccccc3c2)C1NC(=O)CCCN (centres unmarked) [Compound 81] | 60 | 87

Second part, the compound after the results:

SSTR5 Inhib 0.5 uM % (inhibition of binding of SST-14 to SSTR5) [%] | SSTR5 Inhib 10 uM % (inhibition of binding of SST-14 to SSTR5) [%] | Structure (SMILES)
60 | 92 | CSC1O[C@H](COCc2ccc(Cl)cc2)[C@@H](O)[C@@H](OCc2ccc3ccccc3c2)[C@H]1NC(=O)CCCNC(=N)N (some centres unmarked) [Compound 49]
58 | 91 | COC[C@H]1OC(OCc2ccccc2)[C@H](NC(=O)CCNC(=N)N)[C@H](OCc2ccc3ccccc3c2)[C@@H]1O (some centres unmarked) [Compound 53]
60 | 91 | COC[C@H]1OC(OCc2ccccc2)[C@H](NC(=O)CCN)[C@H](OCc2ccc(-c3ccccc3)cc2)[C@@H]1O (some centres unmarked) [Compound 54]
71 | 91 | COC[C@H]1OC(OCc2ccc(-c3ccccc3)cc2)[C@H](NC(=O)CCCNC(=N)N)[C@@H](OCc2ccc(-c3ccccc3)cc2)[C@@H]1O (some centres unmarked) [Compound 55]
57 | 91 | COC[C@H]1OC(OCc2ccc(Cl)cc2)[C@H](NC(=O)CCCNC(=N)N)[C@@H](OCc2ccc(Cl)cc2)[C@@H]1O (some centres unmarked) [Compound 56]
64 | 91 | COC[C@H]1OC(OCc2ccc3ccccc3c2)[C@H](NC(=O)CCNC(=N)N)[C@H](OCc2ccc3ccccc3c2)[C@@H]1O (some centres unmarked) [Compound 57]
57 | 90 | COC[C@H]1OC(OCc2ccc3ccccc3c2)[C@H](NC(=O)CCCNC(=N)N)[C@H](OCc2ccc3ccccc3c2)[C@@H]1O (some centres unmarked) [Compound 60]
61 | 90 | COC[C@H]1OC(OCCc2ccccc2)[C@H](NC(=O)CCCNC(=N)N)[C@H](OCc2ccc(Cl)cc2)[C@@H]1O (some centres unmarked) [Compound 62]
50 | 90 | COC[C@H]1OC(OCc2ccc(-c3ccccc3)cc2)[C@H](NC(=O)CCCN)[C@@H](OCc2ccc(Cl)cc2)[C@@H]1O (some centres unmarked) [Compound 63]
57 | 90 | COC[C@H]1OC(OCc2ccc3ccccc3c2)[C@H](NC(=O)CCCNC(=N)N)[C@H](OCc2ccccc2)[C@@H]1O (some centres unmarked) [Compound 64]
46 | 89 | COC[C@H]1OC(OCc2ccc3ccccc3c2)[C@H](NC(=O)CCCN)[C@@H](OCc2ccccc2)[C@@H]1O (some centres unmarked) [Compound 68]
18 | 89 | CO[C@H]1[C@H](O)[C@@H](COCc2ccc(-c3ccccc3)cc2)OC(OCc2ccc(-c3ccccc3)cc2)[C@@H]1NC(=O)CNC(=N)N (some centres unmarked) [Compound 70]
51 | 89 | CSC1O[C@H](COCc2ccccc2)[C@@H](O)[C@@H](OCc2ccc3ccccc3c2)[C@H]1NC(=O)CNC(=N)N (some centres unmarked) [Compound 72]
51 | 88 | COC[C@H]1OC(OCc2ccccc2)[C@H](NC(=O)CCCN)[C@H](OCc2ccc3ccccc3c2)[C@@H]1O (some centres unmarked) [Compound 76]
50 | 88 | COC[C@H]1OC(OCc2ccc(-c3ccccc3)cc2)[C@H](NC(=O)CCCNC(=N)N)[C@@H](OCc2ccc(-c3ccccc3)cc2)[C@@H]1O (some centres unmarked) [Compound 77]
44 | 88 | COC[C@H]1OC(OCc2ccc(-c3ccccc3)cc2)[C@H](NC(=O)CCCN)[C@@H](OCc2ccc(-c3ccccc3)cc2)[C@@H]1O (some centres unmarked) [Compound 80]
